# Entries after “also recorded” stand apart in the source; their conditions may differ.
# Tests used:
# rat TRPV1 receptor = rat TRPV1 receptor (Rattus norvegicus, UniProt O35433); experiment: Whole cell patch clamp recordings of capsaicin induced currents
# TRPV1 [1] = target: T1, TRPV1 (Rattus norvegicus, UniProt O35433); experiment: Intracellular calcium measurement (FURA-2); assay type: cell-based
# T1 construct: expressed in transfected cells; host or cells: ICP4/ICP27-complementing 7b cells (Vero-derived) infected with HSV-1 vector vTT
# Experimental: Free intracellular calcium was measured by photon scanning on a dual excitation fluorimeter (PTI, Lawrenceville, N.J.). vTT or QOZ infected 7b cells were plated in 6 well plates containing 13.5×20 mm coverslips. Infected cells (8 hpi, 3 PFU/cell) were rinsed with 1× Hank's balanced salt solution (HBSS) and loaded with 2 μM FURA-2 (Molecular Probes Inc., Eugene, Oreg.) (Sneddon et al., 2000) for 1 hour at 37° C. in a 5% CO2 incubator. Coverslips with FURA-2 loaded cells were then placed in a cuvette containing HBBS and then separately subjected to capsaicin at either 3 or 0.3 μM concentrations. Calcium flux following the application of each concentration of capsaicin was measured at 2 Hz and graphed. Results were calibrated by adding 5 μM ionomycin to obtain the maximum fluorescence ratio, followed by addition of 10 mM EGTA to obtain the minimum fluorescence ratio. A Kd of FURA-2 for calcium of 224 nM was assumed.
# TRPV1 [2] = target: T1, TRPV1; experiment: Viral growth assay (vTT / vHG titers by plaque assay); assay type: cell-based
# TRPV1 [3] = target: T1, TRPV1; experiment: Capsaicin selection against vTT in mixed vHG:vTT infections; assay type: cell-based
# [4] = vTT infected cells, BIM pre-incubation, n=3
# [5] = vTT infected cells, mean±SEM, n=8
# [6] = vTT infected 7b cells, 5 μM ionomycin
# Sequence of rat TRPV1 receptor (O35433 whole entry): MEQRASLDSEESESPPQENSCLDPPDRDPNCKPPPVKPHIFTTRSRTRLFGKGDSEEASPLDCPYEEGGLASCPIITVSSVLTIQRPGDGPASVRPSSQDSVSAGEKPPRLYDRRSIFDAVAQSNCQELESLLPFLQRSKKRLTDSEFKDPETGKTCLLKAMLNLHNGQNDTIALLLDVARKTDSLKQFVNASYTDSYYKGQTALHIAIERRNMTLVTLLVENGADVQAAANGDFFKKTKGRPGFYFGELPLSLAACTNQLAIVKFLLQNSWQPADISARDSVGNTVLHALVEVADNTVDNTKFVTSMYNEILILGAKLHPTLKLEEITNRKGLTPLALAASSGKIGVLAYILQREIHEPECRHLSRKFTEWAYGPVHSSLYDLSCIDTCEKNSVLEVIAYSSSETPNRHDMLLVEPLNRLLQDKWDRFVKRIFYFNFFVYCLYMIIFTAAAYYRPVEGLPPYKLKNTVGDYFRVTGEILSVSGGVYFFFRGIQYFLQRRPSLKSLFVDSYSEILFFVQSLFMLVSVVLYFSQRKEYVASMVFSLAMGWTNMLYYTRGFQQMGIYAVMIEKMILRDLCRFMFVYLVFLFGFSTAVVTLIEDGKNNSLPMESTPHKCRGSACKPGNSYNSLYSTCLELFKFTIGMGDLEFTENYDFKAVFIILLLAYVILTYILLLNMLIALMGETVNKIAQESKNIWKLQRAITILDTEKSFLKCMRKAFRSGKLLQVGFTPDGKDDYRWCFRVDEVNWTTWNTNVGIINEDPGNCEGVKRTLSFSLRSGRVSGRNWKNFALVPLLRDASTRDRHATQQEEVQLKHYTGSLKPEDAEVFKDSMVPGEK
# T1 sequence (O35433 whole entry): as above
compound,measurement,setting,value
"CN(C)CCCn1cc(C2=C(c3c[nH]c4ccccc34)C(=O)NC2=O)c2ccccc21.Cl [BIM, bisindolylmaleimide I HCl]",effect of pre-incubation on capsaicin currents,"rat TRPV1 receptor; vTT infected 7b cells, compared to BIM untreated",significantly lower amplitude and rapidly desensitizing currents
same,Capsaicin (nA),rat TRPV1 receptor; [4],−2.2 ± 1.2 nA
same,"Capsaicin Desensitization Time-course (tau, s)",rat TRPV1 receptor; [4],53.4 ± 15.4 s
O=C(O)CN(CCOCCOCCN(CC(=O)O)CC(=O)O)CC(=O)O [EGTA],intracellular calcium signal after capsaicin and ionomycin,"TRPV1 [1]; vTT infected 7b cells, 10 mM EGTA",return to baseline levels
"CCCC(=O)O[C@@H]1[C@@H](C)[C@@]2(O)[C@@H](C=C(CO)C[C@]3(O)C(=O)C(C)=C[C@@H]23)[C@@H]2C(C)(C)[C@]12OC(=O)CCC [PDBu, phorbol 12,13-dibutyrate]",effect on capsaicin current after the first phase of desensitization,"rat TRPV1 receptor; vTT infected 7b cells, PDBu 5 μM",did not affect the current; also recorded: could not be enhanced
"C=C(C)[C@]12C[C@@H](C)[C@@]34O[C@](Cc5ccccc5)(O[C@@H]1[C@@H]3C=C(COC(=O)Cc1ccc(O)c(OC)c1)C[C@]1(O)C(=O)C(C)=C[C@@H]41)O2 [RTX, resiniferatoxin]","growth ratio (GR), highest observed difference","TRPV1 [2]; 1 μM RTX, 72 hpi, p<0.05, n=4",474
same,capsaicin dose relative to RTX dose giving similar reduction in vTT viral titers,"TRPV1 [2]; nanomolar RTX, all time points",~100 fold
COc1cccc(NC(=O)/C=C/c2ccc(Cl)cc2)c1 [SB-366791],vTT viral titers in the presence of capsaicin,"TRPV1 [2]; 1 μM and 10 μM SB-366791 + 0.5 μM capsaicin, all time points, p<0.05, n=4",dose dependent rescue
same,replication of control vector vHG,TRPV1 [2]; CAP and SB-366791 together,did not affect
same,"replication of vHG or vTT, antagonist alone",TRPV1 [2]; SB-366791 alone at 1 and 10 μM,did not affect
COc1cc(CNC(=O)CCCC/C=C/C(C)C)ccc1O [capsaicin],vHG (GFP+) percent output after two passages,"TRPV1 [3]; 3 μM capsaicin, 0.005% vHG input (1:20,000 vHG:vTT)",95%
same,vHG (GFP+) percent output after one passage,"TRPV1 [3]; 3 μM capsaicin, 0.005% vHG input (1:20,000 vHG:vTT), 72 hpi",66%
same,vHG proportion after two passages,"TRPV1 [3]; capsaicin, 1:100,000 vHG input",40%
same,Capsaicin (nA),rat TRPV1 receptor; no virus (uninfected cells),No
same,response to capsaicin stimulation,rat TRPV1 receptor; vHG (control) infected 7b cells,do not respond; also recorded: did not respond
same,Capsaicin (nA),rat TRPV1 receptor; vHG infected cells,No
same,inward current following stimulation with capsaicin,"rat TRPV1 receptor; vTT infected 7b cells, 0.5 μM capsaicin, FIG. 3 trace",9 nA
same,Capsaicin (nA),rat TRPV1 receptor; [5],−6.0 ± 0.6 nA
same,"Capsaicin Desensitization Time-course (tau, s)",rat TRPV1 receptor; [5],280.6 ± 45.1 s
same,lowest concentration with significant differences in replication between vHG and vTT,TRPV1 [2],0.3 µM
same,vTT replication,TRPV1 [2],specifically inhibited
same,vHG titers,TRPV1 [2]; 3 μM CAP alone,without affecting
same,"growth ratio (GR), vHG to vTT virus yield, greatest differential","TRPV1 [2]; 3 μM capsaicin, 72 hpi, p<0.05, n=4",~500 fold
same,intracellular calcium response,"TRPV1 [1]; QOZ (control) infected cells, 0.3 or 3 μM capsaicin",no effect
same,intracellular calcium,"TRPV1 [1]; vTT infected 7b cells, 8 hpi, 3 μM capsaicin",significant increase
same,intracellular calcium response,"TRPV1 [1]; vTT infected 7b cells, 0.3 μM capsaicin, versus 3 μM",smaller response
C[C@H](CCC(=O)O)C[C@H](C)C[C@H](C)C(=O)/C=C(\O)[C@H](C)C[C@H](C)C/C=C/[C@@H](C)[C@@H](O)[C@@H](C)[C@@H](O)C[C@@H]1CC[C@@](C)([C@H]2CC[C@@](C)([C@@H](C)O)O2)O1 [ionomycin],calcium influx,"TRPV1 [1]; QOZ infected cells, 5 μM ionomycin",maximal calcium influx
same,intracellular calcium response after 0.3 μM capsaicin,TRPV1 [1]; [6],further increased
same,intracellular calcium response after 3 μM capsaicin,TRPV1 [1]; [6],did not further increase
N.N.N.N.N.N.N.N.N.N.N.N.N.N.[Cl-].[Cl-].[Cl-].[Cl-].[Cl-].[Cl-].[O-2].[O-2].[Ru+3].[Ru+3].[Ru+4] [ruthenium red],antagonism of capsaicin-induced vTT specific currents,"rat TRPV1 receptor; vTT infected 7b cells, RuR 5 μM in FIG. 3",brought the current back to baseline; also recorded: antagonized
same,replication of vTT in the presence of capsaicin,TRPV1 [2],completely restored
same,"vector replication, antagonist alone",TRPV1 [2],unaffected

# Reference: patent publication US20060275812A1, “Assay for agonists and antagonists of ion channels and for regulators of genetic expression” (University of Pittsburgh of the Commonwealth System of …, priority 2005, published 2006)
